35 compounds from ChEMBL document CHEMBL4145625 (J Med Chem, 2018) can be followed below.

The target in test [1] is Phosphatidylinositol 4,5-bisphosphate 3-kinase catalytic subunit alpha isoform (Homo sapiens, UniProt P42336). In words: Inhibition of PI3Kalpha (unknown origin) using PIP2 as substrate by Kinase-Glo assay. A general note: In Kinase-Glo more light means more ATP remaining.
In another test the test system is NCI-H460. Kind of test: cells. The test is classed as functional, cell-based. Particulars: Homo sapiens, NCI-H460, 96 h.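 Also: cytotoxicity determined with an MTT assay.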

Phosphatidylinositol 4,5-bisphosphate 3-kinase catalytic subunit alpha isoform, sequence (P42336 whole entry, canonical isoform): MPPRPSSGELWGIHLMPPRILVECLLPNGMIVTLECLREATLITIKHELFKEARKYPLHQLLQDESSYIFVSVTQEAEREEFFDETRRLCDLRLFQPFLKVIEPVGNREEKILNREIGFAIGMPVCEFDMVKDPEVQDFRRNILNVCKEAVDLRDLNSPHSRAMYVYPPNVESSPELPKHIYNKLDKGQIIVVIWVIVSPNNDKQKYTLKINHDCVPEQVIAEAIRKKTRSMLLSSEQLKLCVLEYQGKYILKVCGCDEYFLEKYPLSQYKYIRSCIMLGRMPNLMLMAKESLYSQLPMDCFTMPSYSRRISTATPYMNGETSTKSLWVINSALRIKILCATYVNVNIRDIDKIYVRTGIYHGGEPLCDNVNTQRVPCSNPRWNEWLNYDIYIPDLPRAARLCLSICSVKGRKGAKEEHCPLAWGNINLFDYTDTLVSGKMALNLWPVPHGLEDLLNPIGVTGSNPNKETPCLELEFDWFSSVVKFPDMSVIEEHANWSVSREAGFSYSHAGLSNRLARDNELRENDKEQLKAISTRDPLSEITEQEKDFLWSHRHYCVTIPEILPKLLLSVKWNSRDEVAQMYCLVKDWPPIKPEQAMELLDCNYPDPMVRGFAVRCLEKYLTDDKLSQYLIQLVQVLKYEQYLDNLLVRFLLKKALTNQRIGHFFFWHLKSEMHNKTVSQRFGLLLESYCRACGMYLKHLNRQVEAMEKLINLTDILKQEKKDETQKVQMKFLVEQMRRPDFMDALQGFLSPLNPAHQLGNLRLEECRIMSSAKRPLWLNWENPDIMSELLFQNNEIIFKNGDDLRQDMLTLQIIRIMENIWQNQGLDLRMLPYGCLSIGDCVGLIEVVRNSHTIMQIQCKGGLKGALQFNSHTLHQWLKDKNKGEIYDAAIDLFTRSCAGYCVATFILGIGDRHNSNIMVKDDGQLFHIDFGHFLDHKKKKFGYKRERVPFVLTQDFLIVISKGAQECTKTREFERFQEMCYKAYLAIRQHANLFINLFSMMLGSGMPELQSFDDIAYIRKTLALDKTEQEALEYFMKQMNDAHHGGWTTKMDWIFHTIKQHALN
Description for NCI-H460: Cytotoxicity against human NCI-H460 cells after 96 hrs by MTT assay

Take `COc1ncc(-c2cc(OC3CCOCC3)c3nc(NC(C)=O)nc(C)c3c2)cc1NS(=O)(=O)c1ccc(F)cc1F`: the IC50 in test [1] came out at 0.0014 µM; with NCI-H460 it was 0.053 µM.

For the compound `CNc1nc(C)c2cc(-c3cnc(OC)c(NS(=O)(=O)c4ccc(F)cc4F)c3)cc(OC3CCOC(C)(C)C3)c2n1` (stereo unspecified), the concentration for half-maximal inhibition (IC50) in test [1] came out at 0.0018 µM; with NCI-H460, 0.25 µM. The matching figures for `COc1ncc(-c2cc(OC3CCN(C)CC3)c3nc(N)nc(C)c3c2)cc1NS(=O)(=O)c1ccc(F)cc1F`: 0.0048 µM and 0.66 µM. `CNc1nc(C)c2cc(-c3cnc(OC)c(NS(=O)(=O)c4ccc(F)cc4F)c3)cc(OCC3CCOC3)c2n1` (stereo unspecified): the results for the half-maximal inhibitory concentration (IC50) (in test [1]; in the test on NCI-H460) were 0.002 µM and 0.31 µM, respectively. Taken in the same sequence, the figures for `COc1ncc(-c2cc(OCCN3CCOCC3)c3nc(N)nc(C)c3c2)cc1NS(=O)(=O)c1ccc(F)cc1F` were 0.0033 µM and 1.1 µM. Taken in the same sequence, the figures for `COc1ncc(-c2cc(O[C@H]3CCOC3)c3nc(N)nc(C)c3c2)cc1NS(=O)(=O)c1ccc(F)cc1F` were 0.00083 µM and 0.094 µM. The matching figures for `COc1ncc(-c2cc(OC3CCOCC3)c3nc(N)nc(C)c3c2)cc1F`: 0.016 µM and 1.1 µM. In the case of `Cc1nc(N)nc2c(OC3CCOCC3)cc(-c3cnc(Cl)c(NS(=O)(=O)c4ccc(F)cc4)c3)cc12`, the 50% inhibitory concentration (IC50) came out at 0.0017 µM in test [1] and 1.2 µM in the test on NCI-H460. As for `CNc1nc(C)c2cc(-c3cnc(OC)c(NS(=O)(=O)c4ccc(F)cc4F)c3)cc(OC3CCC3)c2n1`, the IC50 in test [1] is 0.0041 µM. `COc1ncc(-c2cc(OC3CCOCC3)c3nc(N)nc(C)c3c2)cc1NS(=O)(=O)c1ccc(F)cc1Cl`: the IC50 is 0.0011 µM in test [1] and 0.017 µM with NCI-H460. In test [1], `CNc1nc(C)c2cc(-c3cnc(OC)c(NS(=O)(=O)c4ccc(F)cc4F)c3)cc(OC3CCCC3)c2n1` registered an IC50 of 0.0066 µM. As for `COc1ncc(-c2cc(OC3CCOCC3)c3nc(NC(C)=O)nc(C)c3c2)cc1NS(C)(=O)=O`, the 50% inhibitory concentration (IC50) in test [1] was 0.011 µM; with NCI-H460, 3.2 µM. As to `COc1ncc(-c2cc(OC)c3nc(N)nc(C)c3c2)cc1NS(=O)(=O)c1ccc(F)cc1F`, in the test on NCI-H460, the 50% inhibitory concentration (IC50) came to 0.28 µM. For `COc1ncc(-c2cc(OC3CCOCC3)c3nc(N(C)C)nc(C)c3c2)cc1NS(=O)(=O)c1ccc(F)cc1F`, the IC50 came to 0.125 µM in test [1] and 4.3 µM in the test with NCI-H460. Taken in the same sequence, the figures for `COc1ncc(-c2cc3c(C)nc(N)nc3n([C@H]3CC[C@H](OCCO)CC3)c2=O)cc1NS(=O)(=O)c1ccc(F)cc1F` were 0.00087 µM and 0.36 µM.

`CCNc1nc(C)c2cc(-c3cnc(OC)c(NS(=O)(=O)c4ccc(F)cc4F)c3)cc(OC3CCOCC3)c2n1`: the IC50 in test [1] was determined as 0.0015 µM; with NCI-H460 it was 0.24 µM. Taken in the same sequence, the figures for `COc1ncc(-c2cc(OCC3CCOCC3)c3nc(N)nc(C)c3c2)cc1NS(=O)(=O)c1ccc(F)cc1F` were 0.00073 µM and 0.021 µM. The matching figures for `CNc1nc(C)c2cc(-c3cnc(OC)c(NS(=O)(=O)c4ccc(F)cc4F)c3)cc(OCC3CCOCC3)c2n1`: 0.0018 µM and 0.4 µM.

In the case of `COc1ncc(-c2cc(OCC3CC3)c3nc(N)nc(C)c3c2)cc1NS(=O)(=O)c1ccc(F)cc1F`, the 50% inhibitory concentration (IC50) in test [1] was 0.0014 µM; with NCI-H460, 0.2 µM. On to `COc1ncc(-c2cc(OC3CCC3)c3nc(N)nc(C)c3c2)cc1NS(=O)(=O)c1ccc(F)cc1F`, for which the concentration for half-maximal inhibition (IC50) in test [1] turned out to be 0.00095 µM.

With `COc1ncc(-c2cc(OC3CCOCC3)c3nc(N)nc(C)c3c2)cc1NS(=O)(=O)c1ccc(Cl)s1`, the IC50 in test [1] is 0.0011 µM. On to `COc1ncc(-c2cc(OC3CCC(F)(F)CC3)c3nc(N)nc(C)c3c2)cc1NS(=O)(=O)c1ccc(F)cc1F`, for which the IC50 in test [1] is 0.0016 µM; in the test with NCI-H460, 0.083 µM. Taken in the same sequence, the figures for `COc1ncc(-c2cc(OC3CCCCC3)c3nc(N)nc(C)c3c2)cc1NS(=O)(=O)c1ccc(F)cc1F` were 0.00095 µM and 0.096 µM.

For `COc1ncc(-c2cc(OC3CCOCC3)c3nc(N)nc(C)c3c2)cc1NS(=O)(=O)C1CC1`, the half-maximal inhibitory concentration (IC50) in test [1] came out at 0.0025 µM; in the test on NCI-H460, 0.93 µM. Consider `CNc1nc(C)c2cc(-c3cnc(OC)c(NS(=O)(=O)c4ccc(F)cc4F)c3)cc(O[C@H]3CCOC3)c2n1`, for which, in test [1], the half-maximal inhibitory concentration (IC50) amounted to 0.0014 µM.

For `Cc1ncc(-c2cc(OC3CCOCC3)c3nc(N)nc(C)c3c2)cc1NS(=O)(=O)c1ccc(F)cc1F`, the IC50 is 0.0014 µM in test [1] and 2.1 µM in the test on NCI-H460. `COc1ncc(-c2cc(OCC3CCCO3)c3nc(N)nc(C)c3c2)cc1NS(=O)(=O)c1ccc(F)cc1F` (stereo unspecified) returned an IC50 in test [1] of 0.0011 µM. As for `COc1ccc(-c2cc(OC3CCOCC3)c3nc(N)nc(C)c3c2)cn1`, the 50% inhibitory concentration (IC50) in test [1] stood at 0.031 µM; with NCI-H460, 0.98 µM. Regarding `COc1ncc(-c2cc(OC(C)C)c3nc(N)nc(C)c3c2)cc1NS(=O)(=O)c1ccc(F)cc1F`, the half-maximal inhibitory concentration (IC50) in test [1] was 0.0007 µM; in the test with NCI-H460 it was 0.14 µM.

`COCCOc1cc(-c2cnc(OC)c(NS(=O)(=O)c3ccc(F)cc3F)c2)cc2c(C)nc(N)nc12` displayed a 50% inhibitory concentration (IC50) in the test with NCI-H460 of 0.2 µM. For the compound `COc1ncc(-c2cc(OC3CCOCC3)c3nc(N)nc(C)c3c2)cc1NS(=O)(=O)c1ccc(F)cc1`, the IC50 in test [1] is 0.0012 µM; with NCI-H460, 0.096 µM. The matching figures for `COc1ncc(-c2cc(OC3CCOCC3)c3nc(NCC4CC4)nc(C)c3c2)cc1NS(=O)(=O)c1ccc(F)cc1F`: 0.0054 µM and 0.41 µM. In test [1], `COc1ncc(-c2cc(OCC3CCOC3)c3nc(N)nc(C)c3c2)cc1NS(=O)(=O)c1ccc(F)cc1F` (stereo unspecified) gave an IC50 of 0.0012 µM. Regarding `CNc1nc(C)c2cc(-c3cnc(OC)c(NS(=O)(=O)c4ccc(F)cc4F)c3)cc(OC3CCCCC3)c2n1`, the half-maximal inhibitory concentration (IC50) in test [1] was 0.0098 µM; with NCI-H460, 1.7 µM.

Consider `COc1ncc(-c2cc(OC3CCOCC3)c3nc(N)nc(C)c3c2)cc1NS(C)(=O)=O`, for which the IC50 in test [1] stood at 0.0026 µM; in the test with NCI-H460, 0.86 µM.

The term IC50 denotes the point on the concentration scale where inhibition reaches its midpoint. A higher IC50 goes with weaker potency.
